{
  "source": "ChEMBL document CHEMBL4118193",
  "about": "“1,2,3,4,6-Penta-O-galloyl-β-d-glucose suppresses colon cancer through induction of tumor suppressor” (Bioorg Med Chem Lett, 2018)",
  "key": {"[1]": {"tested_on": "HCT-116", "assay": "Cytotoxicity against human HCT116 cells at 10 uM after 48 hrs by CytoTox-96 non-radioactive assay", "type": "functional, cell-based"}, "[2]": {"tested_on": "HT-29", "assay": "Cytotoxicity against human HT-29 cells at 10 uM after 48 hrs by CytoTox-96 non-radioactive assay", "type": "functional, cell-based"}, "[3]": {"tested_on": "CCD-18Co", "assay": "Antiproliferative activity against human CCD-18Co cells at 1 to 10 uM after 48 hrs by CytoTox-96 non-radioactive assay", "type": "cell-based"}, "[4]": {"tested_on": "HCT-116", "assay": "Anticlonogenic activity against human HCT116 cells assessed as inhibition of colony formation after 4 to 5 days by crystal violet staining-based assay", "type": "functional, cell-based"}, "[5]": {"tested_on": "HCT-116", "assay": "Cell cycle arrest in human HCT116 cells assessed as accumulation at G0/G1 phase at 1 uM after 48 hrs (reference value: 38.5%)", "type": "functional"}, "[6]": {"tested_on": "HCT-116", "assay": "Cell cycle arrest in human HCT116 cells assessed as accumulation at G0/G1 phase at 2.5 uM after 48 hrs (reference value: 38.5%)", "type": "functional"}, "[7]": {"tested_on": "HCT-116", "assay": "Cell cycle arrest in human HCT116 cells assessed as accumulation at G0/G1 phase at 5 uM after 48 hrs (reference value: 38.5%)", "type": "functional"}, "[8]": {"tested_on": "HCT-116", "assay": "Cell cycle arrest in human HCT116 cells assessed as accumulation at S phase at 1 uM after 48 hrs (reference value: 10.9%)", "type": "functional"}, "[9]": {"tested_on": "HCT-116", "assay": "Cell cycle arrest in human HCT116 cells assessed as accumulation at S phase at 5 uM after 48 hrs (reference value: 10.9%)", "type": "functional"}, "[10]": {"tested_on": "HCT-116", "assay": "Cell cycle arrest in human HCT116 cells assessed as accumulation at G2/M phase at 2.5 uM after 48 hrs (reference value: 21.5%)", "type": "functional"}, "[11]": {"tested_on": "HT-29", "assay": "Cell cycle arrest in human HT-29 cells assessed as accumulation at G0/G1 phase at 1 uM after 48 hrs (reference value: 53.9%)", "type": "functional"}, "[12]": {"tested_on": "HT-29", "assay": "Cell cycle arrest in human HT-29 cells assessed as accumulation at G0/G1 phase at 2.5 uM after 48 hrs (reference value: 53.9%)", "type": "functional"}, "[13]": {"tested_on": "HT-29", "assay": "Cell cycle arrest in human HT-29 cells assessed as accumulation at S phase at 10 uM after 48 hrs (reference value: 9.7%)", "type": "functional"}, "[14]": {"tested_on": "HT-29", "assay": "Cell cycle arrest in human HT-29 cells assessed as accumulation at G2/M phase at 5 uM after 48 hrs (reference value: 14.7%)", "type": "functional"}, "[15]": {"tested_on": "HT-29", "assay": "Cell cycle arrest in human HT-29 cells assessed as accumulation at G2/M phase at 10 uM after 48 hrs (reference value: 14.7%)", "type": "functional"}, "[16]": {"tested_on": "HT-29", "assay": "Cell cycle arrest in human HT-29 cells assessed as accumulation at subG1 phase after 48 hrs", "type": "functional, cell-based"}, "[17]": {"tested_on": "HCT-116", "assay": "Induction of apoptosis in human HCT116 cells assessed as early apoptotic cells at 1 uM after 48 hrs by Annexin-V and dead cell assay (reference value: 1.70%)", "type": "functional"}, "[18]": {"tested_on": "HCT-116", "assay": "Induction of apoptosis in human HCT116 cells assessed as late apoptotic cells at 5 uM after 48 hrs by Annexin-V and dead cell assay (reference value: 1.45%)", "type": "functional"}, "[19]": {"tested_on": "HCT-116", "assay": "Induction of apoptosis in human HCT116 cells assessed as necrotic cells at 10 uM after 48 hrs by Annexin-V and dead cell assay (reference value: 0.10%)", "type": "functional"}, "[20]": {"tested_on": "HCT-116", "assay": "Induction of apoptosis in human HCT116 cells assessed as DNA fragmentation at 1 to 10 uM after 48 hrs by ELISA", "type": "functional, cell-based"}, "[21]": {"tested_on": "HCT-116", "assay": "Induction of apoptosis in human HCT116 cells assessed as in p53 protein level at 2.5 uM after 48 hrs by Western blot method relative to beta-actin", "type": "functional"}, "[22]": {"tested_on": "HCT-116", "assay": "Induction of apoptosis in human HCT116 cells assessed as p21 protein level at 1 uM after 48 hrs by Western blot method relative to beta-actin", "type": "functional"}, "[23]": {"tested_on": "HCT-116", "assay": "Induction of apoptosis in human HCT116 cells assessed as in p21 protein level at 5 uM after 48 hrs by Western blot method relative to beta-actin", "type": "functional"}, "[24]": {"tested_on": "HCT-116", "assay": "Induction of apoptosis in human HCT116 cells assessed as cyclin E protein level at 2.5 uM after 48 hrs by Western blot method relative to beta-actin", "type": "functional"}, "[25]": {"tested_on": "HCT-116", "assay": "Induction of apoptosis in human HCT116 cells assessed as CDK2 protein level at 1 uM after 48 hrs by Western blot method relative to beta-actin", "type": "functional"}, "[26]": {"tested_on": "HCT-116", "assay": "Induction of apoptosis in human HCT116 cells assessed as CDK2 protein level at 10 uM after 48 hrs by Western blot method relative to beta-actin", "type": "functional"}, "[27]": {"tested_on": "HCT-116", "assay": "Induction of apoptosis in human HCT116 cells assessed as Bcl-2 protein level at 1 uM after 48 hrs by Western blot method relative to beta-actin", "type": "functional"}, "[28]": {"tested_on": "HCT-116", "assay": "Induction of apoptosis in human HCT116 cells assessed as Bcl-2 protein level at 5 uM after 48 hrs by Western blot method relative to beta-actin", "type": "functional"}, "[29]": {"tested_on": "HCT-116", "assay": "Induction of apoptosis in human HCT116 cells assessed as cleaved caspase-3 protein level at 5 uM after 48 hrs by Western blot method relative to caspase-3", "type": "functional"}, "[30]": {"tested_on": "HCT-116", "assay": "Induction of apoptosis in human HCT116 cells assessed as cleaved caspase-3 protein level at 10 uM after 48 hrs by Western blot method relative to caspase-3", "type": "functional"}, "[31]": {"tested_on": "HCT-116", "assay": "Induction of apoptosis in human HCT116 cells assessed as caspase-3 protein level at 5 uM after 48 hrs by Western blot method relative to beta-actin", "type": "functional"}, "[32]": {"tested_on": "HT-29", "assay": "Induction of apoptosis in human HT-29 cells assessed as p21 protein level at 2.5 uM after 48 hrs by Western blot method relative to beta-actin", "type": "functional"}, "[33]": {"tested_on": "HT-29", "assay": "Induction of apoptosis in human HT-29 cells assessed as in p21 protein level at 5 uM after 48 hrs by Western blot method relative to beta-actin", "type": "functional"}, "[34]": {"tested_on": "HT-29", "assay": "Induction of apoptosis in human HT-29 cells assessed as p21 protein level at 10 uM after 48 hrs by Western blot method relative to beta-actin", "type": "functional"}, "[35]": {"tested_on": "HT-29", "assay": "Induction of apoptosis in human HT-29 cells assessed as cyclin E protein level at 1 uM after 48 hrs by Western blot method relative to beta-actin", "type": "functional"}, "[36]": {"tested_on": "HT-29", "assay": "Induction of apoptosis in human HT-29 cells assessed as cyclin E protein level at 10 uM after 48 hrs by Western blot method relative to beta-actin", "type": "functional"}, "[37]": {"tested_on": "HT-29", "assay": "Induction of apoptosis in human HT-29 cells assessed as CDK2 protein level at 1 uM after 48 hrs by Western blot method relative to beta-actin", "type": "functional"}, "[38]": {"tested_on": "HT-29", "assay": "Induction of apoptosis in human HT-29 cells assessed as Bcl-2 protein level at 2.5 uM after 48 hrs by Western blot method relative to beta-actin", "type": "functional"}, "[39]": {"tested_on": "HT-29", "assay": "Induction of apoptosis in human HT-29 cells assessed as Bcl-2 protein level at 10 uM after 48 hrs by Western blot method relative to beta-actin", "type": "functional"}, "[40]": {"tested_on": "HT-29", "assay": "Induction of apoptosis in human HT-29 cells assessed as caspase-3 protein level at 1 uM after 48 hrs by Western blot method relative to beta-actin", "type": "functional"}, "[41]": {"tested_on": "HT-29", "assay": "Induction of apoptosis in human HT-29 cells assessed as caspase-3 protein level at 10 uM after 48 hrs by Western blot method relative to beta-actin", "type": "functional"}},
  "note": "The source made the active and inactive calls. No cut-off for these calls is given here.",
  "data": [
    {"smiles": "O=C(OC[C@H]1O[C@@H](OC(=O)c2cc(O)c(O)c(O)c2)[C@H](OC(=O)c2cc(O)c(O)c(O)c2)[C@@H](OC(=O)c2cc(O)c(O)c(O)c2)[C@@H]1OC(=O)c1cc(O)c(O)c(O)c1)c1cc(O)c(O)c(O)c1", "note": "[PENTAGALLOYL GLUCOSE]", "values": [
      {"measurement": "Activity", "setting": "[1]", "result": "Active"},
      {"measurement": "Activity", "setting": "[2]", "result": "Active"},
      {"measurement": "Activity", "setting": "[3]", "result": "Non-Toxic"},
      {"measurement": "Activity", "setting": "[4]", "result": "Dose-dependent effect"},
      {"measurement": "Activity", "setting": "[5]", "result": 37.5, "unit": "%"},
      {"measurement": "Activity", "setting": "[6]", "result": 34, "unit": "%"},
      {"measurement": "Activity", "setting": "[7]", "result": 17.9, "unit": "%"},
      {"measurement": "Activity", "setting": "[8]", "result": 9.8, "unit": "%"},
      {"measurement": "Activity", "setting": "[9]", "result": 17.8, "unit": "%"},
      {"measurement": "Activity", "setting": "[10]", "result": 20.5, "unit": "%"},
      {"measurement": "Activity", "setting": "[11]", "result": 51.3, "unit": "%"},
      {"measurement": "Activity", "setting": "[12]", "result": 47.2, "unit": "%"},
      {"measurement": "Activity", "setting": "[13]", "result": 13.9, "unit": "%"},
      {"measurement": "Activity", "setting": "[14]", "result": 16.3, "unit": "%"},
      {"measurement": "Activity", "setting": "[15]", "result": 11.7, "unit": "%"},
      {"measurement": "Activity", "setting": "[16]", "result": "Dose-dependent effect"},
      {"measurement": "Activity", "setting": "[17]", "result": 1, "unit": "%"},
      {"measurement": "Activity", "setting": "[18]", "result": 4.35, "unit": "%"},
      {"measurement": "Activity", "setting": "[19]", "result": 0.25, "unit": "%"},
      {"measurement": "Activity", "setting": "[20]", "result": "Active"},
      {"measurement": "fold change (FC)", "setting": "[21]", "result": 2.5},
      {"measurement": "fold change (FC)", "setting": "[22]", "result": 1.3},
      {"measurement": "fold change (FC)", "setting": "[23]", "result": 0.7},
      {"measurement": "fold change (FC)", "setting": "[24]", "result": 1.6},
      {"measurement": "fold change (FC)", "setting": "[25]", "result": 0.9},
      {"measurement": "fold change (FC)", "setting": "[26]", "result": 0.3},
      {"measurement": "fold change (FC)", "setting": "[27]", "result": 1.3},
      {"measurement": "fold change (FC)", "setting": "[28]", "result": 1.2},
      {"measurement": "fold change (FC)", "setting": "[29]", "result": 2},
      {"measurement": "fold change (FC)", "setting": "[30]", "result": 1.7},
      {"measurement": "fold change (FC)", "setting": "[31]", "result": 309.9},
      {"measurement": "fold change (FC)", "setting": "[32]", "result": 2.8},
      {"measurement": "fold change (FC)", "setting": "[33]", "result": 1.8},
      {"measurement": "fold change (FC)", "setting": "[34]", "result": 0.1},
      {"measurement": "fold change (FC)", "setting": "[35]", "result": 1.2},
      {"measurement": "fold change (FC)", "setting": "[36]", "result": 0.1},
      {"measurement": "fold change (FC)", "setting": "[37]", "result": 0.9},
      {"measurement": "fold change (FC)", "setting": "[38]", "result": 0.3},
      {"measurement": "fold change (FC)", "setting": "[39]", "result": 0.3},
      {"measurement": "fold change (FC)", "setting": "[40]", "result": 1.6},
      {"measurement": "fold change (FC)", "setting": "[41]", "result": 5.8}
    ]}
  ]
}
